Reference: article PMC3380724 (BMC Neuroscience, 2012)

Key:
h5-HT2AR [1] = target: T1, h5-HT2AR (Homo sapiens, UniProt P28223); assay: Plate immunoassay for pERK, 5-HT2AR-CHO cells; assay type: cell-based; settings: for pERK response after serum-replete preincubation: overnight serum-replete preincubation (Figure 7)
parental CHO-K1 cells [2] = assay: Intracellular calcium (Cai++) release assay, parental CHO-K1 cells; assay type: cell-based, Chinese hamster
Experimental: Changes in Cai^++ levels were determined using the calcium-sensitive dye Calcium 4 (FLIPR No-wash kit, Molecular Devices, Sunnyvale CA, part #R8142). In our hands, the Molecular Devices kit produced results with reasonable signal intensity and reproducibility compared to other commercially available reagents (e.g., Fluo-3 and Fluo-4) without the necessity of dye removal or washing prior to measurements (data not shown). In addition to convenience, the lower number of manipulations required by this kit allowed for more rapid collection of data and decreased the likelihood of cell disturbance or loss.
Cells were plated in serum-replete medium at indicated densities in black-sided, clear bottom 96-well tissue culture plates. […] When plating volume was less than 150 μl, cells were less evenly distributed (visual observation; data not quantified), so we used 150 to 200 μl. […]
Fluorescence (λex = 485 nm, λem = 525 nm) was measured with a FlexStation3 (Molecular Devices). […] The CHO cells remained attached under these conditions; if using other cells lines, attachment should be monitored and reagent addition conditions modified as necessary.
Following addition of test reagent, fluorescence was recorded every 1.7 sec for 90-120 sec. […] Maximum peak height was determined by the FlexStation software (SoftMax Pro 5.2) for each well. […]

parental CHO-K1 cells [3] = assay: Plate immunoassay for pERK, parental CHO-K1 cells; assay type: cell-based, Chinese hamster
h5-HT2AR [4] = target: T1, h5-HT2AR; assay: Intracellular calcium (Cai++) release assay, Calcium 4 dye, 5-HT2AR-CHO cells; settings: for Cai++ response when dye added into existing growth medium: "Serum Replete" protocol, 1 μM agonist (Figure 2)
unedited h5-HT2CR [5] = target: T2, unedited h5-HT2CR (Homo sapiens, UniProt P28335); assay: Intracellular calcium (Cai++) release assay, Calcium 4 dye, 5-HT2CR-CHO cells
T2 sequence (P28335 33-458): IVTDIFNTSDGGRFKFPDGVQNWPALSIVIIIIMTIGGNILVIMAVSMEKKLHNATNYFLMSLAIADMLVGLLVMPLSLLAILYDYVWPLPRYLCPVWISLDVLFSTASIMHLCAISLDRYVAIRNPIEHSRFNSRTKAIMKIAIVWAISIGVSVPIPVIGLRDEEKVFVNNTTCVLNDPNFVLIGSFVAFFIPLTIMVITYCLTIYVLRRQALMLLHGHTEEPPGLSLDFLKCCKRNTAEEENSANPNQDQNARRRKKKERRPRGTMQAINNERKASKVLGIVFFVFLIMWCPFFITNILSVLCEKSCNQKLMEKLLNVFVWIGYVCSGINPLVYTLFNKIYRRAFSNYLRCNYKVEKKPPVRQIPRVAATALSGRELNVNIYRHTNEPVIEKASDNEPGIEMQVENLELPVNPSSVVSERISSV

unedited h5-HT2CR [6] = target: T2, unedited h5-HT2CR; settings: 5-HT2CR-CHO cells
unedited h5-HT2CR [7] = target: T2, unedited h5-HT2CR; assay: cell-based
[8] = EC50 values for agonist-stimulated Cai++ release, 5-HT2CR-CHO cells, Serum-replete overnight preincubation

T1 sequence (P28223 whole entry): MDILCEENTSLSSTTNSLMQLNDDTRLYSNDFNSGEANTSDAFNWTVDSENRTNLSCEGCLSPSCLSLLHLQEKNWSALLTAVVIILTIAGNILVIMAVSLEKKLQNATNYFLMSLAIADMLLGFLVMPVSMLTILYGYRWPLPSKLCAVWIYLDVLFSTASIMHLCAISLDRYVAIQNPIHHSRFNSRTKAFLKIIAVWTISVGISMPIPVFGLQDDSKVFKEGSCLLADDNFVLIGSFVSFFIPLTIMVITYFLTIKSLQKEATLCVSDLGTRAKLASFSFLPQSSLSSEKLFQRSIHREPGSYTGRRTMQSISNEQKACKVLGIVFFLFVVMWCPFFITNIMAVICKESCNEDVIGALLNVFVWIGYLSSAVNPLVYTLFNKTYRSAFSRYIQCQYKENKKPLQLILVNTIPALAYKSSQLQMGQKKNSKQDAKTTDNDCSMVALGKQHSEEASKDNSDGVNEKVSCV

NCCc1c[nH]c2ccc(O)cc12 [5-HT, serotonin]
pERK response after serum-replete preincubation (h5-HT2AR [1]): suppressed
Time of peak ERK activation (h5-HT2AR [1]; serum-starved overnight, 1 μM 5-HT): 5 min
Cai++ release above baseline (parental CHO-K1 cells [2]; above 10^-6 M 5-HT, in a few experiments, not consistent): < 5%
Cai++ release (parental CHO-K1 cells [2]; any concentration of 5-HT (Figure 4B inset)): no Cai^++ release
pERK response (parental CHO-K1 cells [3]): no detectable response
Cai++ response when dye added into existing growth medium (h5-HT2AR [4]): dramatically reduced

COc1ccc(NC(=O)c2ccc(-c3ccc(-c4noc(C)n4)cc3C)cc2)cc1OCCN(C)C [SB216641]
Effect of 5-HT1BR antagonist on Cai++ concentration response to 5-HT (unedited h5-HT2CR [5]; 5-HT2CR-CHO cells, 10^-6 M SB216641, any concentration of 5-HT): no significant difference

Cc1cc2c(cc1Cl)N(C(=O)Nc1ccc(Oc3cccnc3C)nc1)CC2 [SB242084]
EC50 (unedited h5-HT2CR [5]): 2.3 nM
Inhibition of 5-HT-stimulated Cai++ response by antagonist (unedited h5-HT2CR [5]; 5-HT2CR-CHO cells, 15 min pretreatment, 1 μM 5-HT): completely inhibited

COc1cc(CC(C)N)c(OC)cc1I (stereo not shown) [DOI, 1-[2,5-dimethoxy-4-iodophenyl]-2 aminopropane]
Concentration giving maximal pERK response (h5-HT2AR [1]; 5 min stimulation): ~1 μM
pERK response after serum-replete preincubation (h5-HT2AR [1]): suppressed
Concentration giving maximal pERK response (unedited h5-HT2CR [6]; 5 min stimulation): ~1 μM
pERK response after serum-replete preincubation (unedited h5-HT2CR [6]; overnight serum-replete preincubation (Figure 7)): suppressed
EC50 (unedited h5-HT2CR [7]): 19 nM
Cai++ response when dye added into existing growth medium (h5-HT2AR [4]): completely eliminated
Cai++ response after serum preincubation (h5-HT2AR [4]; overnight serum-replete preincubation (Figure 3B)): virtually eliminated
Cai++ response after serum preincubation (unedited h5-HT2CR [5]; 5-HT2CR-CHO cells, overnight serum-replete preincubation (Figure 3D)): virtually eliminated
EC50 (unedited h5-HT2CR [5]; [8]): > 100000 nM
EC50 (unedited h5-HT2CR [5]; EC50 values for agonist-stimulated Cai++ release, 5-HT2CR-CHO cells, Serum-starved overnight preincubation): 5.4 nM

Clc1cncc(N2CCNCC2)n1 [MK212]
EC50 values for agonist-stimulated Cai++ release (h5-HT2AR [4]; Serum-replete overnight preincubation): No response
EC50 values for agonist-stimulated Cai++ release (h5-HT2AR [4]; Serum-starved overnight preincubation): No response
Cai++ release (h5-HT2AR [4]; any tested concentration up to 10^-4 M): no detectable Cai^++ release
Cai++ response after serum-replete preincubation (unedited h5-HT2CR [5]; 5-HT2CR-CHO cells preincubated in serum-replete medium): greatly decreased
EC50 (unedited h5-HT2CR [5]; [8]): > 11000 nM
Cai++ response magnitude (unedited h5-HT2CR [5]; serum-starved 5-HT2CR-CHO cells): low magnitude
